According to publication PMC7692187, “Rapid In Vivo Validation of HDAC Inhibitor-Based Treatments in Neuroblastoma Zebrafish Xenografts” (Pharmaceuticals, 2020):

What was measured:
[1] = system: phospho-histone H3; test: IHC staining for phospho-histone H3 (pHH3) in SK-N-BE(2)-C zebrafish xenografts; type: in vivo, human; settings: 48 h exposure; solvent-treated 47%
Procedure: (§1) Due to this relatively short treatment duration (48 h), the apoptosis induction of the combination therapy is predominant over the antiproliferative effect.
(§2) Left panel: representative images of sections stained against cleaved caspase-3. […] The number of positive cells was calculated as the ratio of positive to total cells counted, relative to solvent. […] (b) Left panel: representative images of sections stained against phospho-histone H3, a marker specific for cells undergoing mitosis. […] The number of positive cells (%) was calculated as the ratio of positive to total cells counted.
(§3) Following fixation (24 h at 4 °C) in Special Fixative for Anatomy and Histology (Morphisto, Frankfurt am Main, Germany), xenografted zebrafish larvae were transferred to embedding cassettes equipped with biopsy pads, dehydrated, and infiltrated with paraffin. […] FIJI software and a macro program were employed for quantitative analysis of the xenograft slides, while the analysis of slides obtained from neuroblastoma patients was carried out manually. All quantitative analyses were performed in a blinded fashion on the xenograft slides (five tissue sections per zebrafish larva), which were obtained from at least two xenotransplantation replicates.

[2] = system: zebrafish larvae; test: Toxicity test: three-day treatment of fish larvae without injection of tumor cells; type: in vivo, zebrafish (Danio rerio); settings: three-day incubation time at 34 °C, drug in buffer
Procedure: (§4) For treatment, larvae were incubated in freshly prepared buffer solution supplemented with 0.2 mM PTU, containing the drug of interest at increasing concentrations. Drug-containing solutions were administered at the beginning of the experiment and were not replaced during the incubation period. Solvent control was applied in the same manner as the drug treatments.

[3] = system: xenografted tumor cells; test: Dose response in zebrafish xenografts: relative IC50 from the change in tumor volume; type: in vivo, human; settings: Danio rerio, compared to solvent, drug applied to surrounding water, n = 3–5 fish per concentration
Procedure: (§5) To determine optimal drug concentrations, larvae bearing xenografted tumor cells were incubated with increasing drug concentrations 24 h post implantation (hpi), ranging from the concentrations used in previous cell culture experiments to the MTD(larvae) (Figure 2a). […] Using these concentrations, we evaluated whether HDACis were able to reach their specific enzymatic targets.
(§6) Right: representative images of immunohistochemical staining (c) Left: quantification of staining for acetylated histone H3. Right: representative images of immunohistochemical staining.
as §4

[4] = system: cleaved caspase-3; test: IHC staining for cleaved caspase-3 in SK-N-BE(2)-C zebrafish xenografts; type: in vivo, human; settings: 48 h exposure, compared to solvent-treated control
Procedure: as §1, §2, §3

[5] = system: acetylated histone H3 (substrate of HDAC1–3); test: IHC staining for acetylated histone H3 in SK-N-BE(2)-C zebrafish xenografts; type: in vivo, human; settings: 48 h exposure at IC50 concentrations (tubastatin A 50 µM), SK-N-BE(2)-C xenografts
Procedure: as §5, §6
(§7) Following fixation (24 h at 4 °C) in Special Fixative for Anatomy and Histology (Morphisto, Frankfurt am Main, Germany), xenografted zebrafish larvae were transferred to embedding cassettes equipped with biopsy pads, dehydrated, and infiltrated with paraffin. Briefly, fixed larvae were dehydrated using Leica ASP300S tissue processor (Leica Biosystems, Wetzlar, Germany) through incubation in aqueous solutions of increasing ethanol concentration (1 h in 50% ethanol, 2 h in 70% ethanol, 2 h in 80% ethanol, 1 h in 96% ethanol, 3 h in absolute ethanol) and thereafter incubated with xylene for 5 h. Next, samples were transferred to liquid paraffin at 60 °C and allowed to infiltrate for 5 h.

[6] = system: SK-N-BE(2)-C cells; test: Doxorubicin accumulation in engrafted tumor cells and zebrafish tissues; type: in vivo, human; settings: tubastatin A 50 µM with doxorubicin 110 ng/mL, 48 h, relative to doxorubicin alone
Procedure: Doxorubicin has an intrinsic fluorescence due to the presence of a hydroxy-substituted anthraquinone chromophore.
(b,c) Representative images (b) and quantification (c) of zebrafish larvae engrafted with Hoechst stained and doxorubicin-treated SK-N-BE(2)-C cells. Larvae, except of unstained larvae, were exposed for 48 h to doxorubicin (red fluorescence) and tubastatin A or solvent. Red fluorescence of doxorubicin was visualized by confocal microscopy and normalized to tumor area. Results are presented as log2 fold change (FC) relative to doxorubicin alone. […] One-way ANOVA with Tukey’s multiple comparison test, scale bar = 50 µm.
SK-N-BE(2)-C cells were incubated with Hoechst nucleic acid dye (Thermo Fisher Scientific) at a concentration of 10 µg/mL for 30 min at 37 °C. […]
Zebrafish larvae engrafted with Hoechst-stained SK-N-BE(2)-C cells were exposed to solvent, doxorubicin, or doxorubicin combined with tubastatin A for 48 h. Red fluorescence of doxorubicin was visualized by confocal microscopy. Doxorubicin has an intrinsic fluorescence due to the presence of a hydroxy-substituted anthraquinone chromophore, with typical excitation and emission maxima in the range of 500 nm and 552–585 nm, respectively. Total fluorescence intensity in the tumor area (determined by nuclear staining) was defined as that above the threshold set by the solvent group and was quantified using a macro program.

[7] = system: acetylated α-tubulin (substrate of HDAC6); test: IHC staining for acetylated α-tubulin in SK-N-BE(2)-C zebrafish xenografts; type: in vivo, human; settings: 50 µM, 48 h, SK-N-BE(2)-C xenografts, versus solvent
Procedure: as §5, §6, §7

Row | Compound | average number of tumor cells per slide positive for pHH3 [1] | Maximum Tolerated Dose (MTD) [2] | IC50 ([3]; 48 h treatment) | number of cells positive for cleaved caspase-3 [4] | IC50 ([3]; 48 h treatment from 24 hpi) | cells stained positive for ac-histone H3 [5] | doxorubicin accumulation in zebrafish tissues and engrafted tumor cells [6] | increase of acetylated α-tubulin [7]
1 | COc1cccc2c1C(=O)c1c(O)c3c(c(O)c1C2=O)C[C@@](O)(C(=O)CO)C[C@@H]3O[C@H]1C[C@H](N)[C@H](O)[C@H](C)O1 [doxorubicin] | 38% | 500 ng/mL | 0.11 µg/mL | increased | – | – | – | –
2 | Cc1[nH]c2ccccc2c1CCNCc1ccc(/C=C/C(=O)NO)cc1 [panobinostat] | – | 1 µM | – | – | 0.2 µM | – | – | –
3 | CN1CCc2c(c3ccccc3n2Cc2ccc(C(=O)NO)cc2)C1 [tubastatin A] | – | 200 µM | – | – | 50 µM | not acetylated H3 | increased | 5 fold
4 | O=C(CCCCCCC(=O)Nc1ccccc1)NO [vorinostat] | 30% | 100 µM | – | increased | – | – | – | –
